Reference: patent US9738634B2, “Heterocyclic amide compound and herbicide” (SYNGENTA PARTICIPATIONS AG, priority 2013, dated 2017)

Experiments:
Format in all cases: in vivo
black-grass [1] = assay: Test Example 4: weedkilling efficacy by foliar treatment; H: black-grass; settings: treatment dosage 315 g/ha
Method in brief: (§1)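 Seeds are spot-sown into sterilized diluvial soil and covered with about 1.5 cm of soil. After 14 days' greenhouse growth at 25 to 30° C, plants are sprayed on stems and leaves with diluted emulsion at the stated g/ha rate, then scored at 3 weeks.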

Indian mallow [2] = assay: Test Example 3: weedkilling efficacy through soil treatment; K: Indian mallow; settings: treatment dosage 315 g/ha
Method in brief: (§2)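 Crop and weed responses were judged three weeks after a uniform surface spray of the water-diluted emulsion at the given g/ha rate. Seeds sat beneath about 1.5 cm of sterilized diluvial soil, and boxes stood in a greenhouse at 25 to 30° C.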

transplanted rice = assay: Test Example 1: preemergent weed treatment in the submerged state, effect on crop; a: transplanted rice; settings: treatment dosage 252 g/ha
Method in brief: (§3)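 Pots of alluvial soil were flooded to a 4 cm depth. Mixed weed seeds were sown and 2.5 leaf-stage rice seedlings transplanted. On sowing day, water-diluted emulsion was applied to the water surface (dose in g/ha). After 3 weeks at 25–30 °C, effects were rated.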

Italian ryegrass [3] = assay: Test Example 4: weedkilling efficacy by foliar treatment; I: Italian ryegrass; settings: treatment dosage 315 g/ha
Method in brief: as §1

barnyard grass [4] = assay: Test Example 4: weedkilling efficacy by foliar treatment; F: barnyard grass; settings: treatment dosage 315 g/ha
Method in brief: as §1

green foxtail [5] = assay: Test Example 4: weedkilling efficacy by foliar treatment; E: green foxtail; settings: treatment dosage 315 g/ha
Method in brief: as §1

crabgrass [6] = assay: Test Example 4: weedkilling efficacy by foliar treatment; D: crabgrass; settings: treatment dosage 315 g/ha
Method in brief: as §1

wheat [7] = assay: Test Example 3: soil treatment, effect on crop; e: wheat; settings: treatment dosage 315 g/ha
Method in brief: as §2

redroot pigweed [8] = assay: Test Example 4: weedkilling efficacy by foliar treatment; L: redroot pigweed; settings: treatment dosage 315 g/ha
Method in brief: as §1

chickweed [9] = assay: Test Example 4: weedkilling efficacy by foliar treatment; N: chickweed; settings: treatment dosage 315 g/ha
Method in brief: as §1

beet [10] = assay: Test Example 3: soil treatment, effect on crop; f: beet; settings: treatment dosage 315 g/ha
Method in brief: as §2

rapeseed [11] = assay: Test Example 4: foliar treatment, effect on crop; g: rapeseed; settings: treatment dosage 315 g/ha
Method in brief: as §1

wheat [12] = assay: Test Example 4: foliar treatment, effect on crop; e: wheat; settings: treatment dosage 315 g/ha
Method in brief: as §1

common wind-grass [13] = assay: Test Example 4: weedkilling efficacy by foliar treatment; J: common wind-grass; settings: treatment dosage 315 g/ha
Method in brief: as §1

barnyard grass [14] = assay: Test Example 2: weedkilling efficacy, growth period weed treatment in the submerged state; A: barnyard grass; settings: treatment dosage 252 g/ha
Method in brief: (§4)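 Weeds treated at the 1-2 leaf stage by application of diluted emulsion onto floodwater (4 cm depth, alluvial soil) at specified g/ha. Grown in greenhouse at 25 to 30° C; herbicidal effect rated three weeks after treatment.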

birds-eye speedwell [15] = assay: Test Example 4: weedkilling efficacy by foliar treatment; p: birds-eye speedwell; settings: treatment dosage 315 g/ha
Method in brief: as §1

beet [16] = assay: Test Example 4: foliar treatment, effect on crop; f: beet; settings: treatment dosage 315 g/ha
Method in brief: as §1

Italian ryegrass [17] = assay: Test Example 3: weedkilling efficacy through soil treatment; I: Italian ryegrass; settings: treatment dosage 315 g/ha
Method in brief: as §2

redroot pigweed [18] = assay: Test Example 3: weedkilling efficacy through soil treatment; L: redroot pigweed; settings: treatment dosage 315 g/ha
Method in brief: as §2

oval-leafed pondweed [19] = assay: Test Example 2: weedkilling efficacy, growth period weed treatment in the submerged state; C: oval-leafed pondweed; settings: treatment dosage 252 g/ha
Method in brief: as §4

green foxtail [20] = assay: Test Example 3: weedkilling efficacy through soil treatment; E: green foxtail; settings: treatment dosage 315 g/ha
Method in brief: as §2

directly sown rice [21] = assay: Test Example 4: foliar treatment, effect on crop; b: directly sown rice; settings: treatment dosage 315 g/ha
Method in brief: as §1

soybean [22] = assay: Test Example 3: soil treatment, effect on crop; d: soybean; settings: treatment dosage 315 g/ha
Method in brief: as §2

barnyard grass [23] = assay: Test Example 1: weedkilling efficacy, preemergent weed treatment in the submerged state; A: barnyard grass; settings: treatment dosage 252 g/ha
Method in brief: as §3

rapeseed [24] = assay: Test Example 3: soil treatment, effect on crop; g: rapeseed; settings: treatment dosage 315 g/ha
Method in brief: as §2

oval-leafed pondweed [25] = assay: Test Example 1: weedkilling efficacy, preemergent weed treatment in the submerged state; C: oval-leafed pondweed; settings: treatment dosage 252 g/ha
Method in brief: as §3

birds-eye speedwell [26] = assay: Test Example 3: weedkilling efficacy through soil treatment; p: birds-eye speedwell; settings: treatment dosage 315 g/ha
Method in brief: as §2

bulrush [27] = assay: Test Example 2: weedkilling efficacy, growth period weed treatment in the submerged state; B: bulrush; settings: treatment dosage 252 g/ha
Method in brief: as §4

crabgrass [28] = assay: Test Example 3: weedkilling efficacy through soil treatment; D: crabgrass; settings: treatment dosage 315 g/ha
Method in brief: as §2

chickweed [29] = assay: Test Example 3: weedkilling efficacy through soil treatment; N: chickweed; settings: treatment dosage 315 g/ha
Method in brief: as §2

catchweed [30] = assay: Test Example 3: weedkilling efficacy through soil treatment; O: catchweed; settings: treatment dosage 315 g/ha
Method in brief: as §2

Indian mallow [31] = assay: Test Example 4: weedkilling efficacy by foliar treatment; K: Indian mallow; settings: treatment dosage 315 g/ha
Method in brief: as §1

wild oat [32] = assay: Test Example 4: weedkilling efficacy by foliar treatment; G: wild oat; settings: treatment dosage 315 g/ha
Method in brief: as §1

bulrush [33] = assay: Test Example 1: weedkilling efficacy, preemergent weed treatment in the submerged state; B: bulrush; settings: treatment dosage 252 g/ha
Method in brief: as §3

corn [34] = assay: Test Example 4: foliar treatment, effect on crop; c: corn; settings: treatment dosage 315 g/ha
Method in brief: as §1

common wind-grass [35] = assay: Test Example 3: weedkilling efficacy through soil treatment; J: common wind-grass; settings: treatment dosage 315 g/ha
Method in brief: as §2

black-grass [36] = assay: Test Example 3: weedkilling efficacy through soil treatment; H: black-grass; settings: treatment dosage 315 g/ha
Method in brief: as §2

soybean [37] = assay: Test Example 4: foliar treatment, effect on crop; d: soybean; settings: treatment dosage 315 g/ha
Method in brief: as §1

directly sown rice [38] = assay: Test Example 3: soil treatment, effect on crop; b: directly sown rice; settings: treatment dosage 315 g/ha
Method in brief: as §2

barnyard grass [39] = assay: Test Example 3: weedkilling efficacy through soil treatment; F: barnyard grass; settings: treatment dosage 315 g/ha
Method in brief: as §2

corn [40] = assay: Test Example 3: soil treatment, effect on crop; c: corn; settings: treatment dosage 315 g/ha
Method in brief: as §2

wild oat [41] = assay: Test Example 3: weedkilling efficacy through soil treatment; G: wild oat; settings: treatment dosage 315 g/ha
Method in brief: as §2

catchweed [42] = assay: Test Example 4: weedkilling efficacy by foliar treatment; O: catchweed; settings: treatment dosage 315 g/ha
Method in brief: as §1

Question: With `CC1=C(c2ccccc2)C(=O)N(C(C)(C)C(=O)Nc2cc(C)cnc2Cl)CO1` [B-3-04] as the compound, how does the “H (black-grass) weedkilling efficacy grade” value (black-grass [1]) read?
Answer: 3 (weed kill ratio 40% or more, less than 70%)

Question: What about the “K (Indian mallow) weedkilling efficacy grade” value (Indian mallow [2]) of the same compound?
Answer: 0 (weed kill ratio 5% or less (practically no effect))

Question: What about the “a (transplanted rice) effect on crop grade” value (transplanted rice) of the same compound?
Answer: 0 (weed kill ratio 5% or less (practically no effect))

Question: And the “I (Italian ryegrass) weedkilling efficacy grade” value (Italian ryegrass [3])?
Answer: 3 (weed kill ratio 40% or more, less than 70%)

Question: What about the “F (barnyard grass) weedkilling efficacy grade” value (barnyard grass [4]) of the same compound?
Answer: 3 (weed kill ratio 40% or more, less than 70%)

Question: And the “E (green foxtail) weedkilling efficacy grade” value (green foxtail [5])?
Answer: 4 (weed kill ratio 70% or more, less than 90%)

Question: And the “D (crabgrass) weedkilling efficacy grade” value (crabgrass [6])?
Answer: 3 (weed kill ratio 40% or more, less than 70%)

Question: What about the “e (wheat) effect on crop grade” value (wheat [7]) of the same compound?
Answer: 0 (weed kill ratio 5% or less (practically no effect))

Question: And the “L (redroot pigweed) weedkilling efficacy grade” value (redroot pigweed [8])?
Answer: 0 (weed kill ratio 5% or less (practically no effect))

Question: And the “N (chickweed) weedkilling efficacy grade” value (chickweed [9])?
Answer: 3 (weed kill ratio 40% or more, less than 70%)

Question: And the “f (beet) effect on crop grade” value (beet [10])?
Answer: 1 (weed kill ratio 5% or more, less than 20%)

Question: And the “g (rapeseed) effect on crop grade” value (rapeseed [11])?
Answer: 1 (weed kill ratio 5% or more, less than 20%)

Question: And the “e (wheat) effect on crop grade” value (wheat [12])?
Answer: 0 (weed kill ratio 5% or less (practically no effect))

Question: And the “J (common wind-grass) weedkilling efficacy grade” value (common wind-grass [13])?
Answer: 4 (weed kill ratio 70% or more, less than 90%)

Question: And the “A (barnyard grass) weedkilling efficacy grade” value (barnyard grass [14])?
Answer: 4 (weed kill ratio 70% or more, less than 90%)

Question: What about the “P (birds-eye speedwell) weedkilling efficacy grade” value (birds-eye speedwell [15]) of the same compound?
Answer: 3 (weed kill ratio 40% or more, less than 70%)

Question: What about the “f (beet) effect on crop grade” value (beet [16]) of the same compound?
Answer: 2 (weed kill ratio 20% or more, less than 40%)

Question: And the “I (Italian ryegrass) weedkilling efficacy grade” value (Italian ryegrass [17])?
Answer: 5 (weed kill ratio 90% or more, (practically complete withering))

Question: What about the “L (redroot pigweed) weedkilling efficacy grade” value (redroot pigweed [18]) of the same compound?
Answer: 0 (weed kill ratio 5% or less (practically no effect))

Question: And the “C (oval-leafed pondweed) weedkilling efficacy grade” value (oval-leafed pondweed [19])?
Answer: 3 (weed kill ratio 40% or more, less than 70%)

Question: And the “E (green foxtail) weedkilling efficacy grade” value (green foxtail [20])?
Answer: 5 (weed kill ratio 90% or more, (practically complete withering))

Question: And the “b (directly sown rice) effect on crop grade” value (directly sown rice [21])?
Answer: 0 (weed kill ratio 5% or less (practically no effect))

Question: And the “d (soybean) effect on crop grade” value (soybean [22])?
Answer: 0 (weed kill ratio 5% or less (practically no effect))

Question: What about the “A (barnyard grass) weedkilling efficacy grade” value (barnyard grass [23]) of the same compound?
Answer: 5 (weed kill ratio 90% or more, (practically complete withering))

Question: And the “g (rapeseed) effect on crop grade” value (rapeseed [24])?
Answer: 0 (weed kill ratio 5% or less (practically no effect))

Question: What about the “C (oval-leafed pondweed) weedkilling efficacy grade” value (oval-leafed pondweed [25]) of the same compound?
Answer: 4 (weed kill ratio 70% or more, less than 90%)

Question: What about the “P (birds-eye speedwell) weedkilling efficacy grade” value (birds-eye speedwell [26]) of the same compound?
Answer: 4 (weed kill ratio 70% or more, less than 90%)

Question: And the “B (bulrush) weedkilling efficacy grade” value (bulrush [27])?
Answer: 4 (weed kill ratio 70% or more, less than 90%)

Question: What about the “D (crabgrass) weedkilling efficacy grade” value (crabgrass [28]) of the same compound?
Answer: 5 (weed kill ratio 90% or more, (practically complete withering))

Question: And the “N (chickweed) weedkilling efficacy grade” value (chickweed [29])?
Answer: 3 (weed kill ratio 40% or more, less than 70%)

Question: What about the “O (catchweed) weedkilling efficacy grade” value (catchweed [30]) of the same compound?
Answer: 2 (weed kill ratio 20% or more, less than 40%)

Question: What about the “K (Indian mallow) weedkilling efficacy grade” value (Indian mallow [31]) of the same compound?
Answer: 2 (weed kill ratio 20% or more, less than 40%)

Question: What about the “G (wild oat) weedkilling efficacy grade” value (wild oat [32]) of the same compound?
Answer: 3 (weed kill ratio 40% or more, less than 70%)

Question: What about the “B (bulrush) weedkilling efficacy grade” value (bulrush [33]) of the same compound?
Answer: 5 (weed kill ratio 90% or more, (practically complete withering))

Question: What about the “c (corn) effect on crop grade” value (corn [34]) of the same compound?
Answer: 0 (weed kill ratio 5% or less (practically no effect))

Question: What about the “J (common wind-grass) weedkilling efficacy grade” value (common wind-grass [35]) of the same compound?
Answer: 5 (weed kill ratio 90% or more, (practically complete withering))

Question: What about the “H (black-grass) weedkilling efficacy grade” value (black-grass [36]) of the same compound?
Answer: 4 (weed kill ratio 70% or more, less than 90%)

Question: What about the “d (soybean) effect on crop grade” value (soybean [37]) of the same compound?
Answer: 0 (weed kill ratio 5% or less (practically no effect))

Question: What about the “b (directly sown rice) effect on crop grade” value (directly sown rice [38]) of the same compound?
Answer: 1 (weed kill ratio 5% or more, less than 20%)

Question: And the “F (barnyard grass) weedkilling efficacy grade” value (barnyard grass [39])?
Answer: 5 (weed kill ratio 90% or more, (practically complete withering))

Question: What about the “c (corn) effect on crop grade” value (corn [40]) of the same compound?
Answer: 0 (weed kill ratio 5% or less (practically no effect))

Question: And the “G (wild oat) weedkilling efficacy grade” value (wild oat [41])?
Answer: 3 (weed kill ratio 40% or more, less than 70%)

Question: And the “O (catchweed) weedkilling efficacy grade” value (catchweed [42])?
Answer: 2 (weed kill ratio 20% or more, less than 40%)
